Values of other authors, collected in patent US11591275B2, “Smart release potash fertilizer granules” (RYNAN TECHNOLOGIES PTE LTD, priority 2018, dated 2023).

Details: for pKa: of the organic acid in the extended release layer

pKa* of associated acids (acid associated with the anion pendant group of the anti-caking copolymer)	pKa	Compound
4.23	4.23	O=C(O)Cc1cccc2ccccc12 [1-Naphthalene Acetic Acid, 1-Naphthalene acetic acid]
–	4.10	O=C(O)C(=O)O [Oxalic Acid]
